Reference: the NIST ThermoML archive (doi:10.1007/s10765-005-8592-5)
Values joined by “and” are separate entries in the source; they are usually repeats but may differ in a detail not shown here. Equal values may be shown once.

Assays:
[1] = xn = mol fraction of the nth substance listed; conditions: Fluid (supercritical or subcritical phases), isochoric method
[2] = molar heat capacity at constant volume; xn = mol fraction of the nth substance listed; conditions: Fluid (supercritical or subcritical phases), Vacuum adiabatic calorimetry

CC(C)C [2-methylpropane] + CCC
Conditions	mass density, [1] [kg/m3]	molar heat capacity at constant volume, [2]
270.15 K, 4579 kPa, x2 = 0.498	566.8	82.79 J/K/mol
275.15 K, 8198 kPa, x2 = 0.498	566.3	81.61 J/K/mol
280.15 K, 11759 kPa, x2 = 0.498	565.9	82.79 J/K/mol
285.15 K, 15256 kPa, x2 = 0.498	565.5	84.27 J/K/mol
290.15 K, 18687 kPa, x2 = 0.498	565.1	85.14 J/K/mol
295.15 K, 22038 kPa, x2 = 0.498	564.8	85.81 J/K/mol
300.15 K, 25302 kPa, x2 = 0.498	564.5	87.7 J/K/mol
305.15 K, 28471 kPa, x2 = 0.498	564.2	89.64 J/K/mol
315.15 K, 9748 kPa, x2 = 0.498	524.3	89.39 J/K/mol
320.15 K, 12415 kPa, x2 = 0.498	523.9	91.23 J/K/mol
325.15 K, 15069 kPa, x2 = 0.498	523.6	92.35 J/K/mol
330.15 K, 17709 kPa, x2 = 0.498	523.3	91.89 J/K/mol
335.15 K, 20336 kPa, x2 = 0.498	523	93.07 J/K/mol
340.15 K, 22950 kPa, x2 = 0.498	522.8	92.66 J/K/mol
345.15 K, 25550 kPa, x2 = 0.498	522.5	92.4 J/K/mol
350.15 K, 7962 kPa, x2 = 0.498	471.7	93.89 J/K/mol
350.15 K, 28136 kPa, x2 = 0.498	522.3	93.22 J/K/mol
355.15 K, 9814 kPa, x2 = 0.498	471.4	93.73 J/K/mol
360.15 K, 11663 kPa, x2 = 0.498	471.2	93.73 J/K/mol
365.15 K, 13509 kPa, x2 = 0.498	470.9	93.22 J/K/mol
370.15 K, 15351 kPa, x2 = 0.498	470.7	94.71 J/K/mol
375.15 K, 17187 kPa, x2 = 0.498	470.5	94.19 J/K/mol
380.15 K, 19017 kPa, x2 = 0.498	470.2	95.06 J/K/mol
380.15 K, 20994 kPa, x2 = 0.756	458.6	88.38 J/K/mol
385.15 K, 4713 kPa, x2 = 0.756	279.9	150.35 J/K/mol
385.15 K, 22824 kPa, x2 = 0.756	458.4	90.71 J/K/mol
390.15 K, 5229 kPa, x2 = 0.756	279.8	127.92 J/K/mol
390.15 K, 22647 kPa, x2 = 0.498	469.8	97.67 J/K/mol
395.15 K, 4489 kPa, x2 = 0.498	274.1	183.94 J/K/mol
395.15 K, 5756 kPa, x2 = 0.756	279.7	116.61 J/K/mol
400.15 K, 4949 kPa, x2 = 0.498	274	160.01 J/K/mol
400.15 K, 6290 kPa, x2 = 0.756	279.6	105.82 J/K/mol
405.15 K, 5419 kPa, x2 = 0.498	273.9	144.56 J/K/mol
405.15 K, 6830 kPa, x2 = 0.756	279.6	101.36 J/K/mol
410.15 K, 5896 kPa, x2 = 0.498	273.8	131.68 J/K/mol
410.15 K, 7375 kPa, x2 = 0.756	279.5	96.37 J/K/mol
415.15 K, 4254 kPa, x2 = 0	273.8	230.8 J/K/mol and 222.08 J/K/mol
415.15 K, 6379 kPa, x2 = 0.498	273.7	124.31 J/K/mol
415.15 K, 7922 kPa, x2 = 0.756	279.4	93.23 J/K/mol
420.15 K, 4664 kPa, x2 = 0	273.7	202.67 J/K/mol
420.15 K, 4665 kPa, x2 = 0	273.8	202.96 J/K/mol
420.15 K, 6865 kPa, x2 = 0.498	273.6	115.11 J/K/mol
420.15 K, 8472 kPa, x2 = 0.756	279.3	90.85 J/K/mol
425.15 K, 5082 kPa, x2 = 0	273.7	186.05 J/K/mol
425.15 K, 5083 kPa, x2 = 0	273.7	187.1 J/K/mol
425.15 K, 7354 kPa, x2 = 0.498	273.6	109.18 J/K/mol

CCC [propane] + CC(C)C
x1 = 1
Conditions	mass density, [1] [kg/m3]	molar heat capacity at constant volume, [2] [J/K/mol]
270.15 K, 4427 kPa	539.9	71.74
275.15 K, 7953 kPa	539.6	71.26
280.15 K, 11458 kPa	539.3	71.3
285.15 K, 14939 kPa	539	72.63
290.15 K, 18398 kPa	538.7	73.46
295.15 K, 21836 kPa	538.4	74.57
300.15 K, 25251 kPa	538.1	74.61
305.15 K, 28640 kPa	537.8	74.35
310.15 K, 6561 kPa	490.3	74.57
315.15 K, 9049 kPa	490.1	75.23
320.15 K, 11532 kPa	489.8	76.15
325.15 K, 3660 kPa	454.8	77.96
325.15 K, 14008 kPa	489.6	76.37
330.15 K, 5594 kPa	454.6	78.75
330.15 K, 16475 kPa	489.3	76.64
335.15 K, 7530 kPa	454.3	78.31
335.15 K, 18934 kPa	489.1	76.9
340.15 K, 9468 kPa	454.1	77.7
340.15 K, 21386 kPa	488.9	77.21
345.15 K, 11404 kPa	453.9	77.26
345.15 K, 23827 kPa	488.6	76.33
350.15 K, 13339 kPa	453.7	79.46
350.15 K, 26253 kPa	488.4	77.52
355.15 K, 15273 kPa	453.5	77.39
355.15 K, 28668 kPa	488.2	77.43
360.15 K, 17203 kPa	453.3	77.74
365.15 K, 19126 kPa	453.1	78.62
370.15 K, 21044 kPa	452.9	79.15
375.15 K, 5095 kPa	301.1	98.6
380.15 K, 5744 kPa	301	93.04
385.15 K, 6404 kPa	300.9	89.6
390.15 K, 7072 kPa	300.8	86.07
395.15 K, 7746 kPa	300.7	84.84
400.15 K, 8425 kPa	300.6	80.43
405.15 K, 9109 kPa	300.5	78.84
410.15 K, 9795 kPa	300.4	79.99
420.15 K, 11176 kPa	300.2	79.81
425.15 K, 11869 kPa	300.1	81.75
